Assay [1] deals with E. coli ATCC 25922. Nature of the assay: MIC, E. coli ATCC 25922. Particulars: for EC8 MIC / MIC: EC8 not defined; for EC MIC: Table 13, L = NH; for MIC: Escherichia coli, read-out: EC8 MIC. The assay is classed as cell-based.
Assay [2] deals with S. aureus ATCC 13709. Nature of the assay: MIC, S. aureus ATCC 13709. Type of assay: cell-based. Particulars: for MIC: Staphylococcus aureus, read-out: SA MIC.
The mark [3] stands for this setting: Table 11, compounds wherein L = CH2.
The mark [4] stands for this setting: Table 12, Z is C and connected to R4.
The mark [5] stands for this setting: ATCC25922, Table 15, R2 is joined to R4.
Where [6] appears, read: ATCC13709, Table 15, R2 is joined to R4.
Where [7] appears, read: ATCC25922, Table 16, new R4 substituents.
Where [8] appears, read: ATCC13709, Table 16, new R4 substituents.

Structures are written as SMILES. ≈ marks a conversion by molar mass, not a printed value. Where two headings read alike, the source gives them in different places. Where only a bound is given, the exact number is not on record here.

The values below come from US10865216B2, “Tricyclic Gyrase inhibitors” (MERCK SHARP & DOHME CORP., priority 2012, dated 2020).

`CNc1cc(F)cc2c1[nH]c1nc(Cc3cncnc3)nc(N3C[C@H](N)C4(CC4)C3)c12` had an EC8 MIC in assay [1] (Table 11, L = CH2) of 1 µg/mL. Besides, in assay [2] (setting [3]), the SA MIC was at most 0.5 µg/mL.
For `CNc1cc(F)cc2c1[nH]c1nc(Cc3cnc(C)nc3)nc(N3CC[C@@]4(C[C@H]4N)C3)c12`, in that order: 2 µg/mL and at most 0.5 µg/mL.
In the same order, the values of `CNc1cc(F)cc2c1[nH]c1nc(Cc3cnc(C)nc3)nc(N3CC[C@@]4(C[C@@H]4N)C3)c12` are 8 µg/mL and 1 µg/mL.
For `CNc1cc(F)cc2c1[nH]c1nc(Cc3cnc(C)nc3)nc(N3CC4CC(N)C4C3)c12` (stereo not drawn), in that order: 1 µg/mL and at most 0.5 µg/mL.
For the compound `CNc1cc(F)cc2c1[nH]c1nc(Cc3cnc(C)nc3)nc(N3CC4(CCC4N)C3)c12` (stereo not drawn), the EC8 MIC in assay [1] (Table 11, L = CH2) was found to be 1 µg/mL. Moreover, the SA MIC in assay [2] (setting [3]) is at most 0.5 µg/mL.
The compound `CNc1cc(F)c2c3c1[nH]c1nc(Oc4cnc(C)nc4)nc(c13)-c1ccccc1NC2` gave an EC8 MIC in assay [1] (setting [4]) of at most 0.5 µg/mL. Moreover, in assay [2] (setting [4]), the SA MIC was at most 0.5 µg/mL.
As to `CNc1cc(F)c2c3c1[nH]c1nc(Oc4cnc(C)nc4)nc(c13)N1CCC[C@H]1CNC2`, in assay [1] (setting [4]), the EC8 MIC is over 16 µg/mL. The compound also had an SA MIC in assay [2] (setting [4]) of 16 µg/mL.
Turning to `CNc1cc(F)c2c3c1[nH]c1nc(Oc4cnc(C)nc4)nc(c13)NC(=N)NC2`, in assay [1] (setting [4]), the EC8 MIC is 8 µg/mL. Besides, the SA MIC in assay [2] (setting [4]) was found to be 4 µg/mL.
For `CNc1cc(F)c2c3c1[nH]c1nc(Oc4cnc(C)nc4)nc(c13)-c1ccc(Cl)cc1NC2`, in that order: 4 µg/mL and at most 0.5 µg/mL.
`CNc1cc(F)c2c3c1[nH]c1nc(Oc4cncnc4)nc(c13)-c1ccccc1NC2`: in assay [1] (setting [4]), the EC8 MIC is over 16 µg/mL. The SA MIC in assay [2] (setting [4]) is at most 0.5 µg/mL.
For `CNc1cc(F)c2c3c1[nH]c1nc(Oc4cnc(N)nc4)nc(c13)-c1ccccc1NC2`, in that order: over 16 µg/mL and at most 0.5 µg/mL.
Turning to `CNc1cc(F)cc2c1[nH]c1nc(Nc3cnc(C)nc3)nc(N3C[C@H]4CC3C[C@H]4N)c12`, the EC MIC in assay [1] was at most 0.5 µg/mL. Moreover, in assay [2] (Table 13, L = NH), the SA MIC was at most 0.5 µg/mL.
`CNc1cc(F)cc2c1[nH]c1nc(Nc3cnc4c(c3)nnn4C(C)C)nc(N3C[C@H]4CC3C[C@H]4N)c12` yielded an EC MIC in assay [1] of 1 µg/mL. The compound further showed an SA MIC in assay [2] (Table 13, L = NH) of at most 0.5 µg/mL.
For `CNc1cc(F)cc2c1[nH]c1nc(Nc3cccnc3)nc(N3C[C@H]4CC3C[C@H]4N)c12`, in that order: at most 0.5 µg/mL and at most 0.5 µg/mL.
In the same order, the values of `CNc1cc(F)cc2c1[nH]c1nc(Nc3cnc4ccnn4c3)nc(N3C[C@H]4CC3C[C@H]4N)c12` are at most 0.5 µg/mL and at most 0.5 µg/mL.
For `CCOC(=O)c1csc(Nc2nc(N3C[C@H]4CC3C[C@H]4N)c3c(n2)[nH]c2c(NC)cc(F)cc23)n1`, in that order: 1 µg/mL and at most 0.5 µg/mL.
Regarding `CNc1cc(F)cc2c1[nH]c1nc(Nc3cnc4nccnc4c3)nc(N3C[C@H]4CC3C[C@H]4N)c12`, in assay [1], the EC MIC was 16 µg/mL. In addition, the SA MIC in assay [2] (Table 13, L = NH) is at most 0.5 µg/mL.
As to `CNc1cc(F)cc2c1[nH]c1nc3nc(c12)NCCCCCCNC(=O)c1cncc(c1)O3`, the minimum inhibitory concentration (MIC) in assay [1] (setting [5]) is 1 µg/mL (≈ 2.22 µM); in assay [2] (setting [6]), at most 0.5 µg/mL.
As to `CNc1cc(F)cc2c1[nH]c1nc3nc(c12)NCCCCCCNC(=O)CSc1ncc(cn1)O3`, the minimal inhibitory concentration (MIC) was over 16 µg/mL in assay [1] (setting [5]) and at most 0.5 µg/mL in assay [2] (setting [6]).
In the same order, the values of `CNc1cc(F)cc2c1[nH]c1nc3nc(c12)NCCCCNC(=O)CSc1ncc(cn1)O3` are 2 µg/mL (≈ 4.27 µM) and at most 0.5 µg/mL.
For `CNc1cc(F)cc2c1[nH]c1nc3nc(c12)N[C@@H](CN)COCCCNC(=O)CSc1ncc(cn1)O3`, in that order: 8 µg/mL (≈ 15.2 µM) and 2 µg/mL (≈ 3.79 µM).
In the case of `CNc1cc(F)cc2c1[nH]c1nc(Oc3cnc4ccoc4c3)nc(N3CCC(C)(CN)C3)c12` (stereo not drawn), the minimal inhibitory concentration (MIC) in assay [1] (setting [7]) was 0.5 µg/mL (≈ 1.08 µM); in assay [2] (setting [8]), at most 0.5 µg/mL.
For `CNc1cc(F)cc2c1[nH]c1nc(Oc3cnc(C)nc3)nc(N3CCC(C4CNC4)C3)c12` (stereo not drawn), the values for the minimum inhibitory concentration (MIC) in assay [1] (setting [7]) and in assay [2] (setting [8]) were 8 µg/mL (≈ 17.8 µM) and at most 0.5 µg/mL, respectively.
For `CNc1cc(F)cc2c1[nH]c1nc(Oc3cnc(C)nc3)nc(N3CCC(C)(N)C3)c12` (stereo not drawn), in that order: at most 0.5 µg/mL and at most 0.5 µg/mL.
In the same order, the values of `CNc1cc(F)cc2c1[nH]c1nc(Oc3cnc(C)nc3)nc(N3CCC(F)(CN)C3)c12` (stereo not drawn) are at most 0.5 µg/mL and at most 0.5 µg/mL.
In the same order, the values of `CNc1cc(F)cc2c1[nH]c1nc(Oc3cnc(C)nc3)nc(N3CCCC3=O)c12` are over 16 µg/mL and 1 µg/mL (≈ 2.45 µM).
Turning to `CNc1cc(F)cc2c1[nH]c1nc(Oc3cnc(C)nc3)nc(-c3ccc(C4(N)CC4)cc3)c12`, the figures for the MIC in assay [1] (setting [7]) and in assay [2] (setting [8]) were 4 µg/mL (≈ 8.78 µM) and at most 0.5 µg/mL, respectively.
